Drawing on publication PMC12452952, “Subtype-specific structural features of the hearing loss–associated human P2X2 receptor” (Proceedings of the National Academy of Sciences of the …, 2025), this text covers EC50 for one compound.

The target in the assay is T1, human P2X2 receptor (hP2X2R) (Homo sapiens, UniProt Q9UBL9).
T1 construct: gene P2RX2; full-length wild-type
T1 sequence (Q9UBL9 1-471): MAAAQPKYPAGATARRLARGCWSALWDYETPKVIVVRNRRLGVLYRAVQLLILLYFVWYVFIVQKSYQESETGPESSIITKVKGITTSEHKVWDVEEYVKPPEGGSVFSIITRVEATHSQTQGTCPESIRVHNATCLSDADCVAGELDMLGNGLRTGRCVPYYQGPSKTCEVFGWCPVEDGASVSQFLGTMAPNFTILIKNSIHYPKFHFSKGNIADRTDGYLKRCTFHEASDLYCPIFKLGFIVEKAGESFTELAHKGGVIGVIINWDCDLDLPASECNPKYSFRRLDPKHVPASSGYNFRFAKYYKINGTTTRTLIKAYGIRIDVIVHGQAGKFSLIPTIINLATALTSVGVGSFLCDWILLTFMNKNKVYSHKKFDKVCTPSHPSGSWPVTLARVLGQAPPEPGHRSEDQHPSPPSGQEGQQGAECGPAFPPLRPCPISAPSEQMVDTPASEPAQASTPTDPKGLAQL
Nature of the assay: cryo-EM structures of ATP-bound homotrimer ([…] and […] Å); EC50 by two-electrode voltage clamp in Xenopus oocytes (divalent-free). Format: cell-based. In general terms: Two-electrode voltage clamp holds a large cell at a set potential and records current.

What is called EC50 is the concentration at which the effect is half-maximal. High values mean lower potency in that assay, low ones higher potency in that assay. `Nc1ncnc2c1ncn2[C@@H]1O[C@H](COP(=O)(O)OP(=O)(O)OP(=O)(O)O)[C@@H](O)[C@H]1O` [ATP] displayed an EC50 of 0.156 ± 0.096 µM.
